Results taken from patent US20230132093A1, “EXTRACELLULAR VESICLE-NLRP3 ANTAGONIST” (Codiak BioSciences, Inc., priority 2019, published 2023).
Entries after “also recorded” stand apart in the source; their conditions may differ.

Legend:
mouse NLRP3 reporter = assay: Knock down of HiBit-fused mouse NLRP3 reporter in HEK reporter cell line; format: cell-based; settings: eleven concentrations
Source text: A HEK reporter cell line was transfected with a mouse NLRP3 reporter contruct (FIG. 5A) to assay NLRP3 knockdown at eleven concentrations for the top five performing mouse ASOs (ASO Nos. 16, 19, 70, 98, and 43; FIG. 5B).

mouse NLRP3 transcript = assay: NLRP3 knock down in mouse J774.1 cells, qRT-PCR; format: cell-based; settings: 7-point titration
Protocol: In silico analysis of the mouse NLRP3 transcript was used to generate 100 candidate NLRP3 ASOs. Mouse J774.1 cells were treated in vitro with either 5 nM or 20 nM of each candidate NLRP3 ASO. NLRP3 expression was measured using qRT-PCR, and about 30 ASOs yielding a knock down of at least 50% were subjected to further analysis. The top 22 performing ASOs were then subjected to a 7-point titration of various concentrations in mouse J774.1 cells, and NLRP3 expression was again measured by qRT-PCR (FIGS. 4A-4V).

BMDM = assay: Viability of BMDM treated with LPS, ATP and mNLRP3 ASOs; format: cell-based, mouse
NLRP3 pathway = assay: IL-1β secretion in BMDM after ASO-RNAiMAX transfection, LPS and ATP; format: cell-based, mouse; settings: 2 days post transfection, 200 ng/mL LPS 3 h, 5 mM ATP 3 h
Protocol: Bone marrow-derived macrophages (BMDM) can be used to determine whether knock down of NLRP3 has a downstream effect on activation of the NLRP3 pathway (FIGS. 6A-6B). BMDMs were transfected with increasing concentrations of the top five performing mouse ASOs (ASO Nos. 16, 19, 70, 98, and 43) as part of an ASO-RNAiMAX complex. Two days post transfection, the cells BMDM were treated with 200 ng/mL LPS. Three hour later, the BMDM were treated with 5 mM ATP. Three hours after ATP treatment, IL-1 β secretion was measured.

human NLRP3 = assay: IL-1β secretion in cultured primary human MO macrophages after ASO, LPS and ATP; format: cell-based; settings: for IL-1β induction: 50 nM ASO; for IL-1β secretion relative to ASO scramble controls: most donor cell populations
Protocol: The top-performing ASOs were further analyzed using human monocytes isolated from whole blood. Isolated monocytes were cultured for seven to eight days in M-CSF. Cells were then seeded and cultured overnight. […] Three hours later, the cells were treated with 5 mM ATP. Three hours later, IL-1β levels were measured using AlpaLISA. Cholesterol-tagged ASOs were incubated with PTGFRN-overexpressing exosomes to load the ASOs on the surface of the exosomes.

[1] = test system: primary human MO macrophages; assay: Cell viability of cultured primary human MO macrophages treated with ASO; format: cell-based

Row | Substance | Knock down of NLRP3 in the HEK reporter cell line (mouse NLRP3 reporter) | IC50 (mouse NLRP3 transcript) | Lowest % value (remaining NLRP3 transcript as a percent of starting levels) (mouse NLRP3 transcript) | Viability (BMDM) | IL-1β secretion (NLRP3 pathway) | also measured
1 | ASO No. 70: mouse NLRP3 ASO, SEQ ID NO: 203, Seq Start 2235 (antisense CGTTTTGACCCTATGACAGT; chemistry not given here) | dose-dependent knock down | 13.4 nM | 30.43% | increased viability | decreased IL-1β secretion at all doses tested | –
2 | ASO 1664: human NLRP3 ASO, SEQ ID NO: 143 (antisense CGTCAAAGGCACCTTGCAGC; chemistry not given here) | – | – | – | – | – | IL-1β induction (human NLRP3; 2 nM, 10 nM): dose dependent decrease; IL-1β secretion relative to ASO scramble controls (human NLRP3; 2 nM): reduced IL-1β secretion; IL-1β secretion relative to ASO scramble controls (human NLRP3; 10 nM): reduced IL-1β secretion; Cell viability ([1]; 2 nM ASO): remained stable; Cell viability ([1]; 10 nM ASO): remained stable; Cell viability ([1]; 50 nM ASO): dropped
3 | ASO No. 43: mouse NLRP3 ASO, SEQ ID NO: 205, Seq Start 1132 (antisense CGTCAAAGGCCCCTTGTAGC; chemistry not given here) | dose-dependent knock down | 15.4 nM | 48.37% | increased viability | decreased IL-1β secretion at all doses tested | –
4 | ASO 2672: human NLRP3 ASO, SEQ ID NO: 166 (antisense AGTCCATGGCCCTTTGCACG; chemistry not given here) | – | – | – | – | – | IL-1β induction (human NLRP3; 2 nM, 10 nM): dose dependent decrease; IL-1β secretion relative to ASO scramble controls (human NLRP3; 2 nM): reduced IL-1β secretion; IL-1β secretion relative to ASO scramble controls (human NLRP3; 10 nM): reduced IL-1β secretion; Cell viability ([1]; 2 nM ASO): remained stable; Cell viability ([1]; 10 nM ASO): remained stable; Cell viability ([1]; 50 nM ASO): dropped
5 | ASO No. 48: mouse NLRP3 ASO, SEQ ID NO: 209, Seq Start 1262 (antisense TCCAAGGCTACCGGCCTCGT; chemistry not fully specified) | – | 60.6 nM | 65.00% | – | – | –
6 | ASO No. 11: mouse NLRP3 ASO, SEQ ID NO: 206, Seq Start 2961 (antisense GCTTCGTAGATAGAGGTGTG; chemistry not fully specified) | – | 28.2 nM | 30.70% | – | – | –
7 | ASO No. 19: mouse NLRP3 ASO, SEQ ID NO: 202, Seq Start 318 (antisense GATACAGCCTTTCTCGGGCG; chemistry not given here) | dose-dependent knock down | 12.7 nM | 36.10% | increased viability | decreased IL-1β secretion at all doses tested | –
8 | ASO No. 98: mouse NLRP3 ASO, SEQ ID NO: 204, Seq Start 3761 (antisense CGGGATGGTCAGTTAACAGG; chemistry not given here) | – | 14.7 nM | 42.17% | increased viability | decreased IL-1β secretion at all doses tested | Knock down of NLRP3 in the HEK reporter cell line (mouse NLRP3 reporter; listed as 98): dose-dependent knock down; also recorded: most robust knock down
9 | ASO No. 16: mouse NLRP3 ASO, SEQ ID NO: 201, Seq Start 229 (antisense GCTTGCAACGGACACTCGTC; chemistry not given here) | dose-dependent knock down | 6.56 nM | 36.10% | increased viability | decreased IL-1β secretion at all doses tested | –
10 | ASO No. 55: mouse NLRP3 ASO, SEQ ID NO: 210, Seq Start 1740 (antisense CTCGCAGTCCACTTCCTTCT; chemistry not fully specified) | – | 63.1 nM | 59.17% | – | – | –
11 | ASO 3094: human NLRP3 ASO, SEQ ID NO: 174 (antisense GTCGAAGCAGCACTCATGCG; chemistry not given here) | – | – | – | – | – | IL-1β induction (human NLRP3; 2 nM, 10 nM): dose dependent decrease; IL-1β secretion relative to ASO scramble controls (human NLRP3; 2 nM): reduced IL-1β secretion; IL-1β secretion relative to ASO scramble controls (human NLRP3; 10 nM): reduced IL-1β secretion; Cell viability ([1]; 2 nM ASO): remained stable; Cell viability ([1]; 10 nM ASO): remained stable; Cell viability ([1]; 50 nM ASO): dropped
12 | ASO No. 41: mouse NLRP3 ASO, SEQ ID NO: 208, Seq Start 984 (antisense CTCTCGGCAGTGGATAAAGA; chemistry not fully specified) | – | 57.3 nM | 52.30% | – | – | –
13 | ASO No. 21: mouse NLRP3 ASO, SEQ ID NO: 207, Seq Start 392 (antisense TCGCCATTGAAGTCAATCAT; chemistry not fully specified) | – | 30.1 nM | 33.07% | – | – | –
